Drawing on US11440914B2, “Tricyclic amine compounds as CDK2 inhibitors” (Incyte Corporation, priority 2019, dated 2022), this text covers IC50 for 29 compounds.

pIC50: −log10 of the molar value. Some results are limits rather than exact numbers.

The assay addresses CDK2/Cyclin E1 (Homo sapiens (Human), UniProt P24941). Description: CDK2/Cyclin E1 HTRF enzyme activity assay. Format: biochemical. The note with it: 1 mM ATP. Here is the method:
CDK2/Cyclin E1 enzyme activity assays utilize full-length human CDK2 co-expressed as N-terminal GST-tagged protein with FLAG-Cyclin E1 in a baculovirus expression system (Carna Product Number 04-165). Assays are conducted in white 384-well polystyrene plates in a final reaction volume of 8 μL. CDK2/Cyclin E1 (0.25 nM) is incubated with compounds (40 nL serially diluted in DMSO) in the presence of ATP (50 μM or 1 mM) and 50 nM ULight™-labeled eIF4E-binding protein 1 (THR37/46) peptide (PerkinElmer) in assay buffer (containing 50 mM HEPES pH 7.5, 1 mM EGTA, 10 mM MgCl2, 2 mM DTT, 0.05 mg/ml BSA, and 0.01% Tween 20) for 60 minutes at room temperature. The reactions are stopped by the addition of EDTA and Europium-labeled anti-phospho-4E-BP1 antibody (PerkinElmer), for a final concentration of 15 mM and 1.5 nM, respectively. HTRF signals are read after 1 hour at room temperature on a PHERAstar FS plate reader (BMG Labtech). Data is analyzed with IDBS XLFit and GraphPad Prism 5.0 software using a three or four parameter dose response curve to determine IC50 for each compound.
Turning to `Cc1nc2c(n1C1CC1)-c1nc(N[C@H]3CCN(S(=O)(=O)c4cn(C)cn4)C[C@H]3C)ncc1CC2` [Example 31, 1-Cyclopropyl-2-methyl-N-((3R,4S)-3-methyl-1-((1-methyl-1H-imidazol-4-yl)sulfonyl)piperidin-4-yl)-4,5-dihydro-1H-imidazo[4,5-h]quinazolin-8-amine], the negative-log IC50 (pIC50) is not below 7.30.
As to `Cn1cc2c(n1)COc1cnc(NC3CCN(S(C)(=O)=O)CC3)nc1-2` [Example 10, 8-Methyl-N-(1-(methylsulfonyl)piperidin-4-yl)-6,8-dihydropyrazolo[4′,3′:4,5]pyrano[3,2-d]pyrimidin-2-amine], the pIC50 is 6.30 to 6.70.
Compound `CS(=O)(=O)N1CCC(Nc2ncc3c(n2)-c2c(ncn2C2CC2)CO3)CC1` [Example 26, 1-Cyclopropyl-N-(1-(methylsulfonyl)piperidin-4-yl)-1,4-dihydroimidazo[4′,5′:4,5]pyrano[3,2-d]pyrimidin-8-amine] gave a negative logarithm of the IC50 (pIC50) not below 7.30.
In the case of `Cc1nc2c(n1C1CC1)-c1nc(NC3CCN(S(C)(=O)=O)CC3)ncc1CC2(C)C` [Example 25, 1-Cyclopropyl-2,4,4-trimethyl-N-(1-(methylsulfonyl)piperidin-4-yl)-4,5-dihydro-1H-imidazo[4,5-h]quinazolin-8-amine], the negative logarithm of the IC50 (pIC50) was not below 7.30.
Then `Cn1cc2c(n1)CCc1cnc(NC3CCN(S(C)(=O)=O)CC3)nc1-2` [Example 9, 8-Methyl-N-(1-(methylsulfonyl)piperidin-4-yl)-6,8-dihydro-5H-pyrazolo[3,4-h]quinazolin-2-amine], with 6.70 to 7.30.
Compound `CS(=O)(=O)N1CCC(Nc2ncc3c(n2)-c2c(nc(-c4ccccc4)n2C2CC2)CC3)CC1` [Example 22, 1-Cyclopropyl-N-(1-(methylsulfonyl)piperidin-4-yl)-2-phenyl-4,5-dihydro-1H-imidazo[4,5-h]quinazolin-8-amine] had a pIC50 not below 7.30.
Take `CS(=O)(=O)N1CCC(Nc2ncc3c(n2)-c2c(nc(-c4ccccc4F)n2C2CC2)CC3)CC1` [Example 23, 1-Cyclopropyl-2-(2-fluorophenyl)-N-(1-(methylsulfonyl)piperidin-4-yl)-4,5-dihydro-1H-imidazo[4,5-h]quinazolin-8-amine]: the negative-log IC50 (pIC50) was not below 7.30.
Then `CS(=O)(=O)N1CCC(Nc2ncc3c(n2)-c2c(nn(C4CC4)c2C2CC2)CC3)CC1` [Example 16, 8,9-Dicyclopropyl-N-(1-(methylsulfonyl)piperidin-4-yl)-6,8-dihydro-5H-pyrazolo[3,4-h]quinazolin-2-amine], with not below 7.30; and `Cc1nc2c(n1C)-c1nc(N[C@H]3CCN(S(=O)(=O)c4cn(C)cn4)C[C@H]3C)ncc1CC2` [Example 28, 1,2-Dimethyl-N-((3R,4S)-3-methyl-1-((1-methyl-1H-imidazol-4-yl)sulfonyl)piperidin-4-yl)-4,5-dihydro-1H-imidazo[4,5-h]quinazolin-8-amine], with not below 7.30; and `Cc1nc2c(n1Cc1ccccc1)-c1nc(NC3CCN(S(C)(=O)=O)CC3)ncc1CC2` [Example 8, 1-Benzyl-2-methyl-N-(1-(methylsulfonyl)piperidin-4-yl)-4,5-dihydro-1H-imidazo[4,5-h]quinazolin-8-amine], with not below 7.30.
Regarding `Cc1nn(C)cc1-c1nc2c(n1C1CC1)-c1nc(NC3CCN(S(C)(=O)=O)CC3)ncc1CC2` [Example 24, 1-Cyclopropyl-2-(1,3-dimethyl-1H-pyrazol-4-yl)-N-(1-(methylsulfonyl)piperidin-4-yl)-4,5-dihydro-1H-imidazo[4,5-h]quinazolin-8-amine], the negative-log IC50 (pIC50) was not below 7.30.
In turn, `Cc1nc2c(n1C)-c1nc(NC3CCN(S(=O)(=O)c4cnn(C)c4)CC3)ncc1CC2` [Example 3, 1,2-Dimethyl-N-(1-((1-methyl-1H-pyrazol-4-yl)sulfonyl)piperidin-4-yl)-4,5-dihydro-1H-imidazo[4,5-h]quinazolin-8-amine] showed a pIC50 not below 7.30.
Compound `CC(C)c1c2c(nn1C)CCc1cnc(NC3CCN(S(C)(=O)=O)CC3)nc1-2` [Example 13, 9-Isopropyl-8-methyl-N-(1-(methylsulfonyl)piperidin-4-yl)-6,8-dihydro-5H-pyrazolo[3,4-h]quinazolin-2-amine] showed a negative-log IC50 (pIC50) not below 7.30.
`CS(=O)(=O)N1CCC(Nc2ncc3c(n2)-c2c(nc(Br)n2C2CC2)CC3)CC1` [Example 21, 2-Bromo-1-cyclopropyl-N-(1-(methylsulfonyl)piperidin-4-yl)-4,5-dihydro-1H-imidazo[4,5-h]quinazolin-8-amine] had a pIC50 not below 7.30.
`Cc1nc2c(n1C)-c1nc(N[C@H]3CCN(S(=O)(=O)c4ccc(N5CC[C@@H](O)C5)nc4)C[C@H]3C)ncc1CC2` [Example 30, (R)-1-(5-(((3R,4S)-4-((1,2-Dimethyl-4,5-dihydro-1H-imidazo[4,5-h]quinazolin-8-yl)amino)-3-methylpiperidin-1-yl)sulfonyl)pyridin-2-yl)pyrrolidin-3-ol] showed a pIC50 not below 7.30.
The compound `Cc1nc2c(n1C)-c1nc(NC3CCN(S(=O)(=O)c4cccc(C#N)c4)CC3)ncc1CC2` [Example 5, 3-((4-((1,2-Dimethyl-4,5-dihydro-1H-imidazo[4,5-h]quinazolin-8-yl)amino)piperidin-1-yl)sulfonyl)benzonitrile] showed a negative logarithm of the IC50 (pIC50) not below 7.30.
`Cn1nc2c(c1C1CC1)-c1nc(NC3CCN(S(C)(=O)=O)CC3)ncc1CC2` [Example 12, 9-Cyclopropyl-8-methyl-N-(1-(methylsulfonyl)piperidin-4-yl)-6,8-dihydro-5H-pyrazolo[3,4-h]quinazolin-2-amine] had a negative logarithm of the IC50 (pIC50) not below 7.30.
Then `Cc1nc2c(n1C)-c1nc(NC3CCN(S(C)(=O)=O)CC3)ncc1CC2` [Example 17, 1,2-Dimethyl-N-(1-(methylsulfonyl)piperidin-4-yl)-4,5-dihydro-1H-imidazo[4,5-h]quinazolin-8-amine], with not below 7.30; and `CCS(=O)(=O)N1CCC(Nc2ncc3c(n2)-c2c(nc(C)n2C)CC3)CC1` [Example 1, N-(1-(Ethylsulfonyl)piperidin-4-yl)-1,2-dimethyl-4,5-dihydro-1H-imidazo[4,5-h]quinazolin-8-amine], with not below 7.30.
In turn, `Cc1nc2c([nH]1)-c1nc(NC3CCN(S(C)(=O)=O)CC3)ncc1CC2` [Example 7, 2-Methyl-N-(1-(methylsulfonyl)piperidin-4-yl)-4,5-dihydro-1H-imidazo[4,5-h]quinazolin-8-amine] showed a pIC50 of 6.70 to 7.30.
The compound `Cc1nc2c(n1C1CC1)-c1nc(N[C@H]3CCN(S(=O)(=O)c4cnn(C)c4)C[C@H]3C)ncc1CC2` [Example 32, 1-Cyclopropyl-2-methyl-N-((3R,4S)-3-methyl-1-((1-methyl-1H-pyrazol-4-yl)sulfonyl)piperidin-4-yl)-4,5-dihydro-1H-imidazo[4,5-h]quinazolin-8-amine] gave a pIC50 not below 7.30.
`Cc1nc2c(n1C1CC1)-c1nc(NC3CCN(S(C)(=O)=O)CC3)ncc1CC2` [Example 19, 1-Cyclopropyl-2-methyl-N-(1-(methylsulfonyl)piperidin-4-yl)-4,5-dihydro-1H-imidazo[4,5-h]quinazolin-8-amine] had a pIC50 not below 7.30.
With `CC(C)c1nc2c(n1C)-c1nc(NC3CCN(S(C)(=O)=O)CC3)ncc1CC2` [Example 18, 2-Isopropyl-1-methyl-N-(1-(methylsulfonyl)piperidin-4-yl)-4,5-dihydro-1H-imidazo[4,5-h]quinazolin-8-amine] the figure was not below 7.30; with `Cc1nc2c(n1C)-c1nc(NC3CCN(S(=O)(=O)C4CC4)CC3)ncc1CC2` [Example 2, N-(1-(Cyclopropylsulfonyl)piperidin-4-yl)-1,2-dimethyl-4,5-dihydro-1H-imidazo[4,5-h]quinazolin-8-amine], not below 7.30.
As to `Cc1nc2c(n1C)-c1nc(NC3CCN(S(=O)(=O)c4cn[nH]c4)CC3)ncc1CC2` [Example 4, N-(1-((1H-Pyrazol-4-yl)sulfonyl)piperidin-4-yl)-1,2-dimethyl-4,5-dihydro-1H-imidazo[4,5-h]quinazolin-8-amine], the negative logarithm of the IC50 (pIC50) was not below 7.30.
The compound `CS(=O)(=O)N1CCC(Nc2ncc3c(n2)-c2c(nn(C4CCOC4)c2C2CC2)CC3)CC1` (centres unmarked) [Example 14, 9-Cyclopropyl-N-(1-(methylsulfonyl)piperidin-4-yl)-8-(tetrahydrofuran-3-yl)-6,8-dihydro-5H-pyrazolo[3,4-h]quinazolin-2-amine] had a negative logarithm of the IC50 (pIC50) not below 7.30.
As for `Cc1nc2c(n1C(C)C)-c1nc(NC3CCN(S(C)(=O)=O)CC3)ncc1CC2` [Example 27, 1-Isopropyl-2-methyl-N-(1-(methylsulfonyl)piperidin-4-yl)-4,5-dihydro-1H-imidazo[4,5-h]quinazolin-8-amine], the negative logarithm of the IC50 (pIC50) is not below 7.30.
With `Cc1nc2c(n1C)-c1nc(N[C@H]3CCN(S(=O)(=O)c4cccc(N5CCN(C)CC5)n4)C[C@H]3C)ncc1CC2` [Example 29, 1,2-Dimethyl-N-((3R,4S)-3-methyl-1-((6-(4-methylpiperazin-1-yl)pyridin-2-yl)sulfonyl)piperidin-4-yl)-4,5-dihydro-1H-imidazo[4,5-h]quinazolin-8-amine], the negative logarithm of the IC50 (pIC50) is not below 7.30.
Regarding `Cc1nc(S(=O)(=O)N2CCC(Nc3ncc4c(n3)-c3c(nc(C)n3C)CC4)CC2)cn1C` [Example 6, N-(1-((1,2-Dimethyl-1H-imidazol-4-yl)sulfonyl)piperidin-4-yl)-1,2-dimethyl-4,5-dihydro-1H-imidazo[4,5-h]quinazolin-8-amine], the pIC50 was not below 7.30.
